Read-outs that look alike come from different tables or passages of the source. Marks after values point to notes of the source that are not given here.
How the values were obtained:
[1] = tested on: influenza virus; assay type: cell-based
[2] = tested on: Oseltamivir resistant strains; assay: microbe, parasite or virus in culture; assay type: cell-based, influenza virus

| Structure (SMILES) | EC50 [1] | EC50 ([1]; read-out: EC50) | IC50 ([2]; Influenza A virus, H3N2, read-out: IC50, inhibition of plaque number) | IC50, inhibition of plaque number ([2]; pH 1) | IC50 ([2]; unidentified influenza virus, pH 1, read-out: IC50, inhibition of plaque number) | IC50 ([2]; unidentified influenza virus, read-out: IC50, inhibition of plaque number) | IC50 ([2]; Influenza A virus, H3N2; read-out: IC50, inhibition of plaque number) | IC50 ([2]; pH 1; read-out: IC50, inhibition of plaque number) | IC50 ([2]; read-out: IC50, inhibition of plaque number) | IC50 ([2]; unidentified influenza virus, pH 1; read-out: IC50, inhibition of plaque number) | IC50 ([2]; unidentified influenza virus; read-out: IC50, inhibition of plaque number) |
| --- | --- | --- | --- | --- | --- | --- | --- | --- | --- | --- | --- |
| CC(=O)N[C@H]1[C@H]([C@H](OC(=O)NCCCCCCCCCNC(=O)c2cc(C(=O)NCCCCCCCCCNC(=O)O[C@@H]([C@@H]3OC(C(=O)O)=C[C@H](NC(=N)N)[C@H]3NC(C)=O)[C@H](O)CO)c(C(=O)N[C@H](CC(=O)NCS(=O)(=O)O)C(=O)NCS(=O)(=O)O)cc2C(=O)N[C@H](CC(=O)NCS(=O)(=O)O)C(=O)NCS(=O)(=O)O)[C@H](O)CO)OC(C(=O)O)=C[C@@H]1NC(=N)N [MD185, PK2PYR(Zn)2[(D-Asp)(NHCH2SO3)2]2] | 0.18/0.097 ng/ml | 0.097 nM | 1 ng/mL | 1-100^b ng/ml | 1 to 10 ng/mL | 1 to 10 ng/mL | – | – | – | – | – |
| CCOC(=O)C1=C[C@@H](OC(CC)CC)[C@H](NC(C)=O)[C@@H](N)C1 [Oseltamivir, reference compound] | – | – | – | – | – | – | ≥ 1000 nM | ≥ 10000 nM | ≥ 10000 nM | 100 nM | 1000 nM |
